Results on 2 compounds are retold here after patent publication US20150099721A1, “TREATING CANCER WITH HSP90 INHIBITORY COMPOUNDS” (Synta Pharmaceuticals Corp., priority 2012, published 2015).

“Also recorded” adds a separate entry of the source.

Assay [1] has as its system SLC34A2-ROS expressing HCC78 NSCLC cells. Put plainly: Cell viability (Cell Titer-Glo) in HCC78 cells. The class given is cell-based, human. As to conditions: for IC50: Homo sapiens, 72 hr exposure (FIG. 1A), read-out: IC50, loss of HCC78 cell viability; for cells killed by single agent: drug on its own (FIG. 1C). On the procedure: (§1) Human HCC78 NSCLC cells and human TPC-1 thyroid cancer cells were obtained from Dr. Steve Morris (St. Jude's) and grown in RPMI in the presence of fetal bovine serum (10%), 2 mM L-glutamine and antibiotics (100 IU/ml penicillin and 100 μg/ml streptomycin) purchased from Sigma Aldrich. Cells were maintained at 37° C., 5% CO2 atmosphere.
(§2) Cell viability was measured using the Cell Titer-Glo assay (Promega). In brief, cells were plated in 96-well plates in triplicate at optimal seeding density (determined empirically for each cell line) and incubated at 37° C., 5% CO2 atmosphere for 24 hr prior to the addition of drug or vehicle (0.3% DMSO) to the culture medium. At the end of the assay, Cell Titer-Glow was added to the wells per manufactures recommendation, shaken for two minutes and incubated for 10 minutes at room temperature. Luminescence (0.1 sec) was measured with a Victor II microplate reader (Perkin Elmer) and the resulting data were used to calculate cell viability, normalized to vehicle control.
(§3) Chromosomal rearrangements involving ROS kinase have been reported in several tumor types, including non-small cell lung cancer (NSCLC) and glioblastoma. […] See, e.g., Ting-Lei Gu et al, PLoS One. 2011; 6(1):e15640. To determine if inhibition of Hsp90 affects the activity of ROS fusion kinases and viability of cells driven by such fusions, SLC34A2-ROS expressing HCC78 NSCLC cells were treated with ganetespib and both viability and protein activity was assessed. […] See, e.g., Chenguang Li et al, PLoS One. 2011; 6(11):e28204. […] To determine if ganetespib affects the constitutive activity of ROS, HCC78 cells were treated with ganetespib for 24 hr and the phosphorylation of ROS was assayed by Western blot. […] In addition to SLC34A2-ROS, other ROS chimeras have been identified including CD74-ROS and FIG-ROS. Show in FIG. 1D, Ba/F3 cells stably expressing either CD74-ROS or FIG-ROS were treated with ganetespib for 24 hr and activity of ROS was determined by Western blot.
For orientation: In ATP-based viability assays light output follows the ATP content of the culture.

Assay [2] deals with ROS (SLC34A2-ROS) in HCC78 cells. Put plainly: Western blot of ROS phosphorylation in HCC78 cells. The class given is cell-based, human. To be noted: 24 hr, 250 nM (FIG. 1B).
Excerpt: (§4) Cells, treated with compound for 24 hr, were lysed in RIPA buffer (CST, Danvers, Mass., USA) on ice and clarified by centrifugation. Equal amounts of proteins were resolved by SDS-PAGE and immunoblotted with indicated antibodies (CST). The antigen-antibody complex was visualized and quantitated using an Odyssey system (LI-COR, Lincoln, Nebr., USA).
as §3

The subject of a further assay is CD74-ROS. Put plainly: Western blot of ROS phosphorylation in Ba/F3 cells expressing CD74-ROS. To be noted: 24 hr, 100 nM (FIG. 1D). Format: cell-based.
Excerpt: as §4, §3
For orientation: In western blotting, separated proteins are transferred to a membrane and probed.

The next assay concerns FIG-ROS. Put plainly: Western blot of ROS phosphorylation in Ba/F3 cells expressing FIG-ROS. Format: cell-based. As to conditions: 24 hr, 100 nM (FIG. 1D).
Excerpt: as §4, §3

Another assay relates to CCDC6-RET. Put plainly: Western blot in TPC-1 cells (CCDC6-RET, ERK, PARP). To be noted: 24 hr (FIG. 2). The class given is cell-based, human. On the procedure:
as §1, §4
(§5) Recently, fusions of the RET kinase have also been detected in NSCLC. See, e.g., Fei Li et al, Cell Research (2012), 1-4. One such fusion, CCDC6-RET, was determined to be present in ˜1% of lung adenocarcinomas from never smokers. To investigate whether ganetespib modulates the activity and stability of RET fusions, CCDC6-RET expressing TPC-1 thyroid cancer cells were used as a model.

The subject of assay [3] is CCDC6-RET expressing TPC-1 thyroid cancer cells. Put plainly: Cell viability in TPC-1 cells. To be noted: 72 hr (FIG. 2A, FIG. 7). The class given is cell-based, human. Here is the method: as §1, §2, §5
Assay [4] relates to cancer cells driven by oncogenic ROS1 fusion. Put plainly: Viability of cancer cells driven by oncogenic ROS1 fusion (FIGS. 3-4). The class given is cell-based. To be noted: FIG. 3, FIG. 4. On the procedure:
as §2

A further assay has as its system ROS1 fusion protein. Put plainly: Degradation of ROS1 fusion protein (FIG. 5). Format: cell-based.
Excerpt: as §4

Usually IC50 stands for the concentration at which inhibition is half-maximal. As for `CC(C)c1cc(-c2nnc(O)n2-c2ccc3c(ccn3C)c2)c(O)cc1O` [ganetespib, 3-(2,4-DIHYDROXY-5- ISOPROPYL-PHENYL)-4-(1- METHYL-INDOL-5-YL)-5- HYDROXY-[1,2,4] TRIAZOLE (GANETESPIB)], in assay [1], the IC50 was 17 nM and the “cells killed by single agent” value is “approximately 50%”. Further, the “phosphorylation of ROS” value in assay [2] is “significant dephosphorylation of ROS”. Also, the “activity (phosphorylation) of CD74-ROS” value with CD74-ROS was “effectively reduces the activity”. Moreover, in the assay on FIG-ROS, the “activity (phosphorylation) of FIG-ROS” value was “effectively reduces the activity”. In the assay on CCDC6-RET, the ERK activity result was “deactivation of ERK”; the PARP cleavage entry is “cleavage of the pro-apoptotic protein PARP”; the “degradation of total and phosphorylated CCDC6-RET” value is on record as “potently induced the degradation”. In addition, the “cell death / viability of TPC-1 cells” value in assay [3] is “resulting in cell death; also recorded: significantly inhibited the viability”. In addition, the “viability of cancer cells driven by oncogenic ROS1 fusion” value in assay [4] is on record as “inhibited viability; also recorded: significantly inhibited the viability of more cancer cells”. In addition, in the assay with ROS1 fusion protein, the “degradation of ROS1 fusion protein” value is recorded as “leads to degradation of ROS1 fusion protein”.

As for `C[C@@H](Oc1cc(-c2cnn(C3CCNCC3)c2)cnc1N)c1c(Cl)ccc(F)c1Cl` [crizotinib, reference compound], in assay [1], the IC50 turned out to be 1040 nM and the “cells killed by single agent” value was “approximately 50%”. For the same compound, the “viability of cancer cells driven by oncogenic ROS1 fusion” value in assay [4] is “inhibited viability”.
